Results published in patent US20080242557A1, “System For Detecting Molecular Interactions” (CGK CO., LTD., priority 2004, published 2008).

Tests used:
[1] = test system: IκBα phosphorylation (IKK); test: Detection of IκBα phosphorylation: translocation of IκBα-mRFP with anti-phospho-IκBα (Ser32)-MNPs in HeLa cells; assay type: cell-based; details: HeLa cells treated with various chemical compounds and growth factors
Caspase-3 = target: T1, Caspase-3 (Homo sapiens, UniProt P42574); test: Magnetic-field translocation of mRFP-Caspase3 by DEVD-MNPs in HeLa cells; assay type: cell-based; details: EGFP expressing cells as negative control showed no motion
T1 construct: mRFP (N); expressed in transfected cells; host or cells: HeLa
T1 sequence (P42574 29-277): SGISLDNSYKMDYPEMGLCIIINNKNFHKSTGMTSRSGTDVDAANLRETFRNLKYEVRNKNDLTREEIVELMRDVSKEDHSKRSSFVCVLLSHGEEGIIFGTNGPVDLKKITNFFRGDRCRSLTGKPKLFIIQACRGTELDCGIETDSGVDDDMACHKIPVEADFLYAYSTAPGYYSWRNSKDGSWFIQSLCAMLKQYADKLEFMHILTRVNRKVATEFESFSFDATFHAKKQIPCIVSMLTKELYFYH
Description: A DEVD-MNPs complex was obtained by reacting a Streptavidin nanoparticle, caspase-3 inhibitor II (DEVD)-biotin conjugate (CALBIOCHEM) and TATHA2-biotin at 40 C for 1 hr while agitating the reaction mixture. Unbound ligands were removed from the reaction mixture by purifying the complex using a paramagnet. After introducing mRFP-Caspase3 or EGFP expressing plasmid into a HeLa cell (ATCC), the cell was incubated. The DEVD-MNPs were introduced into the cell, and a magnetic field (M.F.) was externally applied to the cell using a paramagnet or electromagnet. The confocal images were captured using a confocal laser microscope (Carl Zeiss) for the live cells while applying magnetic field as well as not applying magnetic field.

| Substance | translocation of the IκBα-mRFP fusion protein under the magnetic field (interaction activator screening) [1] | localization of cells expressing mRFP-Caspase3 by external magnetic force (Caspase-3) |
| --- | --- | --- |
| TNF-α | observed to translocate the IκBα-mRFP fusion protein | – |
| DEVD-MNPs: Streptavidin nanoparticle reacted with caspase-3 inhibitor II (DEVD)-biotin conjugate and TATHA2-biotin | – | only the cells (indicated with red arrows) expressing mRFP-Caspase3 were localized |
